pIC50: −log10 of the molar value.

Chain of IDH1 R132H (O75874 whole entry R132H): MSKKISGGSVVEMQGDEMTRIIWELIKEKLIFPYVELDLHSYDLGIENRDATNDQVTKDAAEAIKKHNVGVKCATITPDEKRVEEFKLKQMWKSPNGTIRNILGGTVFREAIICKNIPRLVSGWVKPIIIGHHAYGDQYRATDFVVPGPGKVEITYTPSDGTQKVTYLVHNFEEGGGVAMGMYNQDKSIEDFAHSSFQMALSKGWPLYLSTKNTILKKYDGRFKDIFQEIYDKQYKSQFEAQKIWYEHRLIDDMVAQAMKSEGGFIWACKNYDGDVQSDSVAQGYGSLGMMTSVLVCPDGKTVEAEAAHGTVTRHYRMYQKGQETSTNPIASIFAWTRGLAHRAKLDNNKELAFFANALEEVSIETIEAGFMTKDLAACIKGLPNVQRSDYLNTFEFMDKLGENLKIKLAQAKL

In this assay the target is IDH1 R132H (Homo sapiens (Human), UniProt O75874, R132H). In words: Assays for IDH1 R132H Inhibitors (NADPH/aKG, resazurin detection). Type of assay: biochemical. The note with it: IDH1 R132H enzyme, Table 2; read-out: IDHR132H Activity. The procedure, abridged:
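Substrate mix held 8 uM NADPH plus 2 mM aKG; buffer was 20 mM Tris pH 7.5 with 150 mM NaCl, 10 mM MgCl2, 0.03% BSA. After 50 min room-temperature reaction, NADPH remaining was detected with 30 μM resazurin mix over 5 min.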
In the case of `C[C@@H]1CN(c2nc(C3CCCCC3)c3c(c2C#N)CCOC3)CCN1C(=O)CCl` [Compound 340, (R)-6-(4-(2-chloroacetyl)-3-methylpiperazin-1-yl)-8-cyclohexyl-3,4-dihydro-1H-pyrano[3,4-c]pyridine-5-carbonitrile], the pIC50 is more than 6.30. Then `Cc1occc1C(=O)N1CCN(c2nc(C3CCCCC3)c3c(c2C#N)CCOC3)C[C@H]1C` [Compound 184, (R)-8-cyclohexyl-6-(3-methyl-4-(2-methylfuran-3-carbonyl)piperazin-1-yl)-3,4-dihydro-1H-pyrano[3,4-c]pyridine-5-carbonitrile], with 5.00 to 6.00; and `CC(C)c1nc(N2CCN(C(=O)Cc3cc(F)cc(F)c3)[C@H](C)C2)c(C#N)c2c1COC(C)(C)C2` [Compound 159, (R)-6-(4-(2-(3,5-difluorophenyl)acetyl)-3-methylpiperazin-1-yl)-8-isopropyl-3,3-dimethyl-3,4-dihydro-1H-pyrano[3,4-c]pyridine-5-carbonitrile], with 5.00 to 6.00. `Cc1ccc(NC(=O)N2CCN(c3nc(C4CCCCC4)c4c(c3C#N)CCOC4)C[C@H]2C)cc1` [Compound 280, (R)-4-(5-cyano-8-cyclohexyl-3,4-dihydro-1H-pyrano[3,4-c]pyridin-6-yl)-2-methyl-N-p-tolylpiperazine-1-carboxamide]: the pIC50 was 5.00 to 6.00. For the compound `CC(C)c1nc(N2CCN(C(=O)NC3CCCCC3)CC2)c(C#N)c2c1CCCC2` [Compound 115, 4-(4-cyano-1-isopropyl-5,6,7,8-tetrahydroisoquinolin-3-yl)-N-cyclohexylpiperazine-1-carboxamide], the pIC50 was 5.00 to 6.00.

For the compound `Cc1cnn(CC(=O)N2CCN(c3nc(C4CC4)c4c(c3C#N)CC(C)(C)OC4)C[C@H]2C(C)C)c1` [Compound 401, (R)-8-cyclopropyl-6-(3-isopropyl-4-(2-(4-methyl-1H-pyrazol-1-yl)acetyl)piperazin-1-yl)-3,3-dimethyl-3,4-dihydro-1H-pyrano[3,4-c]pyridine-5-carbonitrile], the pIC50 is more than 6.30.

On to `COC(=O)C1CN(c2nc(C3CC3)c3c(c2C#N)CC(C)(C)OC3)CCN1C(=O)c1ccoc1` (stereo not shown) [Compound 387], for which the pIC50 is 6.00 to 6.30. For `Cc1cc(C(=O)N2CCN(c3nc(C4CC4)c4c(c3C#N)CC(C)(C)OC4)C[C@H]2C)c(C)o1` [Compound 244] the value was 5.00 to 6.00; for `C[C@@H]1CN(c2nc(C3CCCCC3)c3c(c2C#N)CCOC3)CCN1C(=O)Nc1ccc(F)cc1` [Compound 281, (R)-4-(5-cyano-8-cyclohexyl-3,4-dihydro-1H-pyrano[3,4-c]pyridin-6-yl)-N-(4-fluorophenyl)-2-methylpiperazine-1-carboxamide], 5.00 to 6.00. With `CCOC(=O)C1CN(c2nc(C(C)C)c3c(c2C#N)CC(C)(C)OC3)CCN1C(=O)OC` (stereo not shown) [Compound 333, 2-ethyl 1-methyl 4-(5-cyano-8-isopropyl-3,3-dimethyl-3,4-dihydro-1H-pyrano[3,4-c]pyridine-6-yl)piperazine-1,2-dicarboxylate], the pIC50 was 5.00 to 6.00. For `CC1CN(c2nc(-c3cccc(F)c3)c3c(c2C#N)CC(C)(C)OC3)CCN1C(=O)c1ccoc1` (stereo not shown) [Compound 130, 8-(3-fluorophenyl)-6-(4-(furan-3-carbonyl)-3-methylpiperazin-1-yl)-3,3-dimethyl-3,4-dihydro-1H-pyrano[3,4-c]pyridine-5-carbonitrile] the value was 5.00 to 6.00.

Consider `C[C@@H]1CN(c2nc(C3CCCCC3)c3c(c2C#N)CCOC3)CCN1C(=O)Nc1ccccc1F` [Compound 300, (R)-4-(5-cyano-8-cyclohexyl-3,4-dihydro-1H-pyrano[3,4-c]pyridin-6-yl)-N-(2-fluorophenyl)-2-methylpiperazine-1-carboxamide], for which the pIC50 is 5.00 to 6.00. Regarding `CC(C)c1nc(N2CCN(C(=O)Cc3cccc(F)c3)[C@H](C(C)C)C2)c(C#N)c2c1COC(C)(C)C2` [Compound 234, (R)-6-(4-(2-(3-fluorophenyl)acetyl)-3-isopropylpiperazin-1-yl)-8-isopropyl-3,3-dimethyl-3,4-dihydro-1H-pyrano[3,4-c]pyridine-5-carbonitrile], the pIC50 was 5.00 to 6.00.

Values taken from US9662327B2 (AGIOS PHARMACEUTICALS, INC, priority 2011, dated 2017).
